A short description of one data set: Cell permeability. The format is in vitro ADME.
Data set [1] in a line: Aqueous solubility in PBS. The format is physicochemical.
The nature of another data set: in vitro. Particulars: rat, microsomes, Rat liver microsomes t ½ (min). On the technique in general: Liver microsomes are a subcellular fraction often used to study metabolism.
The test system of another data set is HCVcc-RLuc. In words: HCVcc-RLuc assay, combination of compound 3 with anti-HCV drugs (CalcuSyn / MacSynergy II). The format is cell-based, Hepatitis C virus.
Data set [2] is described as follows: Stability in PBS or PBS/acetonitrile (1/1). Particulars: 10 μM, PBS and PBS/acetonitrile (1/1), pH 7.4, room temperature, after 48 hours. The format is physicochemical. The protocol:
(§1) Procedure: […] The mixtures were sampled every hour for eight hours or every 8 hours for 48 hours and analyzed by RP HPLC/UV/HRMS. The analytical RP HPLCUV/HRMS system utilized for the analysis was a Waters Acquity system with UV-detection and mass-detection (Waters SQD). […] Absolute areas under the curve were compared at each time point to determine relative percent compound remaining. The masses of potential adducts were searched for in the final samples to determine if any detectable adduct formed. All samples were prepared in duplicate and the average plotted. Ethacrynic acid, a known Michael acceptor, was used as a positive control. […] To determine the stability of the probe compound to nucleophilic degradation, the compound was dissolved in the two solvent systems above in the presence of 50 μM dithiothreitol (DTT) (FIGS. 2A and 2B).

Data set [3] is described as follows: Stability to nucleophilic degradation in presence of 50 μM dithiothreitol. The format is physicochemical. To be noted: 10 μM, 50 μM DTT, PBS and PBS/acetonitrile (1/1), after 8 hours. As to the method: as §1
In a further data set the test system is HCVsc, genotype 2a. The format is cell-based, Hepatitis C virus. To be noted: 10 μM.
A further data set concerns GT 2a replicon RNA. The format is cell-based, Hepatitis C virus.
Data set [4] deals with HCV replicon (GT 2a) cells. The format is cell-based, Hepatitis C virus.
The subject of a further data set is HCVpp GT 1a. In words: HCVpp entry assay. Particulars: Huh7.5.1 cells. Format: cell-based, Hepatitis C virus.
The subject of the next data set is VSVpp. The format is cell-based, vesicular stomatitis virus.

Results on 24 compounds are retold here after patent US10202367B2, “Heterocyclic compounds and methods of use thereof” (priority 2014, dated 2019).

Values joined by “and” are separate entries in the source; they are usually repeats but may differ in a detail not shown here. Equal entries are not always repeated. Where two headings read alike, the source gives them in different places.

The term half-life denotes the time needed for the level to fall by half in the phase considered. As a reminder, the solubility is the dissolved amount per volume that the medium holds.

`Cc1ccccc1-c1nc(CN2CCC[C@@H](C(=O)NCCCN3C[C@H](C)C[C@H](C)C3)C2)c(C)o1` [Compound 67]: the “Permeability (le^−6 cm/s)” value in “Cell permeability” is recorded as 864.8 le^−6 cm/s. Moreover, the “Sol.” value in [1] was determined as 57.8 µg/mL. For the same compound, in “in vitro”, the half-life was found to be 3.9 min.
As for IFN-α, in the data set with HCVcc-RLuc, the “CalcuSyn CI value (combination index)” value is 0.545 and the “CalcuSyn synergy volume (level of synergy)” value (shortened to “CalcuSyn synergy volume”) was “+++ (key: +/−: nearly additive (0.9 < CI < 1.1); ++: moderate synergy (0.7 < CI < 0.85); +++: synergy (0.3 < CI < 0.7))”.
In the case of `Cc1ccccc1-c1nc(CC2CCC[C@@H](C(=O)CCCCN3C[C@H](C)C[C@H](C)C3)C2)c(C)o1` (stereo partly shown) [Compound 66], in the data set “Cell permeability”, the “Permeability (le^−6 cm/s)” value is given as 864.8 le^−6 cm/s. Moreover, the “Sol.” value in [1] came to 57.8 µg/mL. In the data set “in vitro”, this compound had a half-life of 3.9 min.
Turning to `C[C@@]1(O)[C@H](O)[C@@H](CO)O[C@H]1n1ccc(N)nc1=O` [2′-C-methylcytidine], the “CalcuSyn synergy volume” value with HCVcc-RLuc (tested drug combined with compound 3 (SID 144187742)) was “+/− (nearly additive (0.9 < CI < 1.1))”. Further, the “CalcuSyn CI value (combination index)” value in the data set with HCVcc-RLuc (tested drug combined with compound 3 (SID 144187742) at or near their EC50 values, mean ± SEM, n ≥ 6) is given as 1.10. In addition, in the data set on HCVcc-RLuc (tested drug combined with compound 3, Bliss independence model, MacSynergy II), the “MacSynergy synergy volume (level of synergy)” value (shortened to “MacSynergy synergy volume”) was “+++ (strong synergy (log volume > 9))”.
For the compound `COC(=O)N[C@H](C(=O)N1CCC[C@H]1c1nc(-c2ccc(-c3ccc(-c4c[nH]c([C@@H]5CCCN5C(=O)[C@@H](NC(=O)OC)C(C)C)n4)cc3)cc2)c[nH]1)C(C)C` [Daclatasvir], in the data set with HCVcc-RLuc, the “CalcuSyn CI value (combination index)” value is on record as 0.510 and the “CalcuSyn synergy volume” value is “+++ (key: +/−: nearly additive (0.9 < CI < 1.1); ++: moderate synergy (0.7 < CI < 0.85); +++: synergy (0.3 < CI < 0.7))”.
As for `Cc1cccc(Cl)c1-c1nc(CN2CCC(C(=O)NCCCN3C[C@H](C)C[C@H](C)C3)CC2)c(C)o1` [Compound 1, 1-((2-(2-Chloro-6-methylphenyl)-5-methyloxazol-4-yl)methyl)-N-(3-(cis-3,5-dimethylpiperidin-1-yl)propyl)piperidine-4-carboxamide], the “Sol.” value in data set [1] was more than 74.0 µg/mL. The solubility in [1] (phosphate buffered saline (PBS), aqueous buffer, PBS, pH 7.4, room temperature (23° C.)) was > 74 µg/mL and > 147 µM. Moreover, the “sample still detected in the supernatant” value in [2] was “greater than 97%”. For the same compound, the “degradation in presence of dithiothreitol” value in [3] is “no measurable degradation”.
For `NC(=O)c1ncn([C@@H]2O[C@H](CO)[C@@H](O)[C@H]2O)n1` [Ribavirin], in the data set with HCVcc-RLuc, the “CalcuSyn CI value (combination index)” value is listed as 0.770, the “CalcuSyn synergy volume” value is listed as “++ (key: +/−: nearly additive (0.9 < CI < 1.1); ++: moderate synergy (0.7 < CI < 0.85); +++: synergy (0.3 < CI < 0.7))” and the “MacSynergy synergy volume” value is reported as “+++ (key: ++: moderate synergy (5 < log volume < 9); +++: strong synergy (log volume > 9))”.
For the compound `CCN(CC)CCCCNC(=O)C1CCN(Cc2nc(-c3cc(OC)cc(OC)c3)oc2C)CC1` [Compound 8], in “Cell permeability”, the “Permeability (le^−6 cm/s)” value was 10.4 le^−6 cm/s. The “Sol.” value in data set [1] was more than 72.0 µg/mL.
Turning to `C[C@@H]1C[C@H](C)CN(CCCNC(=O)C2CCN(Cc3oc(-c4cc(C(F)(F)F)cc(C(F)(F)F)c4)nc3C(F)(F)F)CC2)C1` [Compound 68], the “Permeability (le^−6 cm/s)” value in the data set “Cell permeability” is 1061 le^−6 cm/s. The “Sol.” value in [1] was found to be 2.5 µg/mL. In “in vitro”, the half-life was 16.4 min.
Take `CC1CCCN(CCCNC(=O)C2CCN(Cc3oc(-c4cc(C(F)(F)F)cc(C(F)(F)F)c4)nc3C(F)(F)F)CC2)C1` (stereo not shown) [Compound 69]: the “Permeability (le^−6 cm/s)” value in the data set “Cell permeability” is more than 1397 le^−6 cm/s. Further, the half-life in the data set “in vitro” worked out at 5.7 min.
As to `COc1cccc(OC)c1-c1nc(CN2CCC(C(=O)NCCCN3C[C@H](C)C[C@H](C)C3)CC2)c(C)o1` [Compound 37], the “Sol.” value in [1] is more than 76.0 µg/mL.
Take `Cc1cc(-c2nc(CN3CCC(C(=O)NCCCN4C[C@H](C)C[C@H](C)C4)CC3)co2)ccc1F` [Compound 70]: in data set [1], the “Sol.” value is more than 70 µg/mL.
For the compound `Cc1oc(-c2cccc3ccccc23)nc1CN1CCC(C(=O)NCCCN2C[C@H](C)C[C@H](C)C2)CC1` [Compound 31], the “Sol.” value in [1] is more than 74.0 µg/mL.
On the same count and under the same terms, as for `Cc1cccc(Cl)c1-c1nc(CN2CCC(C(=O)NCCCN3CCC(C(C)C)CC3)CC2)c(C)o1` [Compound 61], the figure is more than 76 µg/mL.
In the case of `Cc1ccccc1-c1nc(CN2CCC(C(=O)NCCCN3C[C@H](C)C[C@H](C)C3)CC2)c(C)o1` [Compound 3], the “Sol.” value in data set [1] was found to be 53.9 µg/mL. Besides, the “inhibitory activity on HCVsc infection level” value with HCVsc, genotype 2a is “dramatic inhibitory activities”. Further, in the data set on GT 2a replicon RNA (10 μM), the “inhibitory effect on HCV replication, transient transfection with GT 2a replicon RNA” value is “no inhibitory effect”. Besides, in the data set with GT 2a replicon RNA (Huh7.5.1 cells, 48 h), the “% RLU at 10 μM, HCV subgenomic replicon Transient GT 2a” value was determined as 105 % RLU. Besides, the “inhibitory effect on HCV replication, GT 2a replicon cell line” value in [4] (10 μM) is “no inhibitory effect”. Also, the “% RLU at 10 μM, HCV subgenomic replicon GT 2a cell line” value in data set [4] (48 h) is 103 % RLU. For the same compound, the “% RLU at 10 μM, HCVpp GT 1a” value with HCVpp GT 1a is given as less than 30 % RLU. Further, the “% RLU at 10 μM, VSV pp” value in the data set with VSVpp is listed as approximately 50 % RLU. Also, the “antiviral effect in combination with ribavirin, interferon, telaprevir, daclatasvir, cyclosporin A and 2′-C-methylcytidine” value with HCVcc-RLuc (combination) is listed as “synergistic”.
For the compound `Cc1oc(-c2c(C)c(C)c(C)c(C)c2C)nc1CN1CCC(C(=O)NCCCN2C[C@H](C)C[C@H](C)C2)CC1` [Compound 56], the “Permeability (le^−6 cm/s)” value in the data set “Cell permeability” was 455.2 le^−6 cm/s.
As for `Cc1ccccc1-c1nc(CN2CCC(C(=O)NCCN3CCCCC3)CC2)c(C)o1` [Compound 11], the “Permeability (le^−6 cm/s)” value in the data set “Cell permeability” is on record as 987.3 le^−6 cm/s. Also, the “Sol.” value in [1] turned out to be 47 µg/mL.
Consider `COc1cccc(Br)c1-c1nc(CN2CCC(C(=O)NCCCN3C[C@H](C)C[C@H](C)C3)CC2)c(C)o1` [Compound 40], for which the “Sol.” value in [1] was more than 83.0 µg/mL.
In the case of `Cc1cccc(C)c1-c1nc(CN2CCC(C(=O)NCCCN3C[C@H](C)C[C@H](C)C3)CC2)c(C)o1` [Compound 23], the “Sol.” value in data set [1] came out at 55.9 µg/mL.
Take `CCc1ccccc1-c1nc(CN2CCC(C(=O)NCCCN3C[C@H](C)C[C@H](C)C3)CC2)c(C)o1` [Compound 17]: the “Sol.” value in [1] is 55.9 µg/mL.
`CCC[C@H](NC(=O)[C@@H]1[C@H]2CCC[C@H]2CN1C(=O)[C@@H](NC(=O)[C@@H](NC(=O)c1cnccn1)C1CCCCC1)C(C)(C)C)C(=O)C(=O)NC1CC1` [Telaprevir]: in the data set on HCVcc-RLuc, the “CalcuSyn CI value (combination index)” value was 0.775, the “CalcuSyn synergy volume” value is given as “++ (key: +/−: nearly additive (0.9 < CI < 1.1); ++: moderate synergy (0.7 < CI < 0.85); +++: synergy (0.3 < CI < 0.7))” and the “MacSynergy synergy volume” value is given as “+++ (key: ++: moderate synergy (5 < log volume < 9); +++: strong synergy (log volume > 9))”.
As for `Cc1cccc(-c2nc(CN3CCC(C(=O)NCCCN4C[C@H](C)C[C@H](C)C4)CC3)c(C)o2)c1` [Compound 18], the “Sol.” value in [1] is more than 69.0 µg/mL.
Take `Cc1ccccc1-c1nc(CN2CCC(C(=O)NCCCN3[C@H](C)CCC[C@@H]3C)CC2)c(C)o1` [Compound 51]: the “Sol.” value in data set [1] was more than 69.0 µg/mL.
On to `Cc1ccccc1-c1nc(CN2CCC(C(=O)NCCCN3C[C@H](C)C[C@H](C)C3)CC2)c(C)o1` [Compound 64], for which the “Sol.” value in [1] is more than 69.0 µg/mL.
